Laboratory results from patent US20180177706A1, “COMPOSITIONS CONTAINING HYALURONIC ACID AND SYNERGISTIC ANTI-HYALURONIDASE ACTIVES” (L'OREAL, priority 2016, published 2018).

Legend:
[1] = tested on: hyaluronidase (HAase); experiment: in vitro dose screening assay of HAase inhibitors; format: biochemical
Description: Antioxidants having known hyaluronidase inhibition properties were tested in vitro to establish baseline inhibition. Referring now to the drawings, selected results are shown in the table of FIG. 1, with the known HAase inhibitor Apigenin as a positive control.

[2] = tested on: HAase; experiment: HA gel model of HAase inhibition-based kinetic viscoelastic profile measurement; format: biochemical
Description: Hyaluronidase inhibition activity was evaluated in a HA gel model of HAase inhibition-based kinetic viscoelastic profile measurement. According to the experimental design, various individual controls and known HAase inhibitors were tested (alone and in combination). In this model, HAase was introduced into a gel composed of HA. Upon exposure, the HAase decomposes the HA gel in a time dependent manner which is directly correlated to the viscosity of the HA gel. Test compounds were introduced to the HA gel system and degree of HAase inhibition as gauged by measuring viscosity (change in viscosity) over time.
At each time point, % of Viscosity Loss is compared to the viscosity of HA gel without enzyme.
To describe the synergy clearly, the “inhibition factor,” below, reflects the extent of inhibition of HAase activity, where n=viscosity: […]

[3] = tested on: HAase; settings: stated as known; cited from earlier work
[4] = solubility / formulation observation; format: physicochemical

| inhibition of HAase (in words) ([1]; concentration of 0.05 mg/mL) | dose effect on HAase inhibition ([1]; up to testing dose of 0.5 mg/ml) | inhibition of hyaluronidase in gel model (in words) [2] | solubility (in words) [4] | inhibition of HAase (in words) ([1]; in vitro assay) | Structure (SMILES) | inhibition of HAase (known) [3] |
| --- | --- | --- | --- | --- | --- | --- |
| mild inhibitors | no clear dose effect | very mild effect | – | – | CC1(C)[C@@H](O[C@H]2O[C@H](C(=O)[O-])[C@@H](O)[C@H](O)[C@H]2O[C@@H]2O[C@H](C(=O)[O-])[C@@H](O)[C@H](O)[C@H]2O)CC[C@]2(C)[C@H]3C(=O)C=C4[C@@H]5C[C@@](C)(C(=O)O)CC[C@]5(C)CC[C@@]4(C)[C@]3(C)CC[C@@H]12.[K+].[K+] [dipotassium glycyrrhizate] | – |
| – | – | – | highly insoluble | very potent inhibitor | O=C(OC[C@H]1O[C@@H](OC(=O)c2cc(O)c(O)c(OC(=O)c3cc(O)c(O)c(O)c3)c2)[C@H](OC(=O)c2cc(O)c(O)c(OC(=O)c3cc(O)c(O)c(O)c3)c2)[C@@H](OC(=O)c2cc(O)c(O)c(OC(=O)c3cc(O)c(O)c(O)c3)c2)[C@@H]1OC(=O)c1cc(O)c(O)c(OC(=O)c2cc(O)c(O)c(O)c2)c1)c1cc(O)c(O)c(OC(=O)c2cc(O)c(O)c(O)c2)c1 [tannic acid] | super-efficient inhibitor |
